Legend:
MV4-11 cell line = assay: CellTiter-Glo Luminescent Cell Viability Assay, cell growth inhibition; assay type: cell-based; conditions: Homo sapiens, 96 h, 4 days
Protocol: (§1) Cell growth inhibitory activity of representative MDM2 protein degraders was determined using CellTiter-Glo® Luminescent Cell Viability Assay. Cells were seeded in 384-well white opaque cell culture plates at a density of 2,000 cells/well with serially diluted compounds and incubated at 37° C. in an atmosphere of 95% air and 5% CO2 for 4 days. Cell viability was determined using the CellTiter-Glo® Luminescent Cell Viability Assay Kit (Promega, Madison, WI) according to the manufacture's instruction. Briefly, a volume of CellTiter-Glo® Reagent equal to the volume of cell culture medium was added to each well, and then the plates were incubated at room temperature for 10-20 minutes. The luminescent signal was measured using a Tecan Infinite M1000 multimode microplate reader (Tecan, Morrisville, NC). The half maximal inhibitory concentration (IC50) was calculated using the GraphPad Prism 5 software (GraphPad Software, La Jolla, CA). Cpd. […] The structure of Cpd.

RS4; 11 cell line = assay: as above; assay type: cell-based; conditions: Homo sapiens, 96 h, 4 days
Protocol: as §1

SMILES | IC50 (MV4-11 cell line) [nM] | IC50 (RS4; 11 cell line) [nM]
O=C1CCC(N2C(=O)c3cccc(NCCCCNC(=O)c4ccc(NC(=O)[C@@H]5NC6(CCCCC6)[C@@]6(C(=O)Nc7cc(Cl)ccc76)[C@H]5c5cccc(Cl)c5F)cc4)c3C2=O)C(=O)N1 (stereo partly drawn) [Cpd. No. 9, (3′R,4'S,5′R)-6″-chloro-4′-(3-chloro-2-fluorophenyl)-N-(4-((4-((2-(2,6-dioxopiperidin-3-yl)-1,3-dioxoisoindolin-4-yl)amino)butyl)carbamoyl)phenyl)-2″-oxodispiro[cyclohexane-1,2′-pyrrolidine-3′,3″-indoline]-5′-carboxamide] | 163 | 10
O=C1CCC(N2C(=O)c3cccc(NCCOCCOCCNC(=O)c4ccc(NC(=O)[C@@H]5NC6(CCCCC6)[C@@]6(C(=O)Nc7cc(Cl)ccc76)[C@H]5c5cccc(Cl)c5F)nc4)c3C2=O)C(=O)N1 (stereo partly drawn) [Cpd. No. 24, (3′R,4'S,5′R)-6″-chloro-4′-(3-chloro-2-fluorophenyl)-N-(5-((2-(2-(2-((2-(2,6-dioxopiperidin-3-yl)-1,3-dioxoisoindolin-4-yl)amino)ethoxy)ethoxy)ethyl)carbamoyl)pyridin-2-yl)-2″-oxodispiro[cyclohexane-1,2′-pyrrolidine-3′,3″-indoline]-5′-carboxamide] | 5 | 7
O=C1CCC(N2C(=O)c3cccc(NCCOCCNC(=O)c4ccc(NC(=O)[C@@H]5NC6(CCCCC6)[C@@]6(C(=O)Nc7cc(Cl)ccc76)[C@H]5c5cccc(Cl)c5F)cc4)c3C2=O)C(=O)N1 (stereo partly drawn) [Cpd. No. 13, (3′R,4'S,5′R)-6″-chloro-4′-(3-chloro-2-fluorophenyl)-N-(4-((2-(2-((2-(2,6-dioxopiperidin-3-yl)-1,3-dioxoisoindolin-4-yl)amino)ethoxy)ethyl)carbamoyl)phenyl)-2″-oxodispiro[cyclohexane-1,2′-pyrrolidine-3′,3″-indoline]-5′-carboxamide] | 5.2 | 7.4
O=C(COc1cccc2c1C(=O)N(C1CCC(=O)NC1=O)C2=O)NCCCCNC(=O)c1ccc(NC(=O)[C@@H]2NC3(CCCCC3)[C@@]3(C(=O)Nc4cc(Cl)ccc43)[C@H]2c2cccc(Cl)c2F)cc1 (stereo partly drawn) [Cpd. No. 1, (3′R,4'S,5′R)-6″-chloro-4′-(3-chloro-2-fluorophenyl)-N-(4-((4-(2-((2-(2,6-dioxopiperidin-3-yl)-1,3-dioxoisoindolin-4-yl)oxy)acetamido)butyl)carbamoyl)phenyl)-2″-oxodispiro[cyclohexane-1,2′-pyrrolidine-3′,3″-indoline]-5′-carboxamide] | 416 | 233
O=C(COc1cccc2c1C(=O)N(C1CCC(=O)NC1=O)C2=O)NCCCOCCOCCOCCCNC(=O)c1ccc(NC(=O)[C@@H]2NC3(CCCCC3)[C@@]3(C(=O)Nc4cc(Cl)ccc43)[C@H]2c2cccc(Cl)c2F)cc1 (stereo partly drawn) [Cpd. No. 2, (3′R,4'S,5′R)-6″-chloro-4′-(3-chloro-2-fluorophenyl)-N-(4-((1-((2-(2,6-dioxopiperidin-3-yl)-1,3-dioxoisoindolin-4-yl)oxy)-2-oxo-7,10,13-trioxa-3-azahexadecan-16-yl)carbamoyl)phenyl)-2″-oxodispiro[cyclohexane-1,2′-pyrrolidine-3′,3″-indoline]-5′-carboxamide] | 157 | 85
O=C1CCC(N2C(=O)c3cccc(NCCCOCCOCCOCCCNC(=O)c4ccc(NC(=O)[C@@H]5NC6(CCCCC6)[C@@]6(C(=O)Nc7cc(Cl)ccc76)[C@H]5c5cccc(Cl)c5F)cn4)c3C2=O)C(=O)N1 (stereo partly drawn) [Cpd. No. 27, (3′R,4'S,5′R)-6″-chloro-4′-(3-chloro-2-fluorophenyl)-N-(6-((3-(2-(2-(3-((2-(2,6-dioxopiperidin-3-yl)-1,3-dioxoisoindolin-4-yl)amino)propoxy)ethoxy)ethoxy)propyl)carbamoyl)pyridin-3-yl)-2″-oxodispiro[cyclohexane-1,2′-pyrrolidine-3′,3″-indoline]-5′-carboxamide] | – | 4.6
O=C1CCC(N2C(=O)c3cccc(NCCCCCCCNC(=O)c4ccc(NC(=O)[C@@H]5NC6(CCCCC6)[C@@]6(C(=O)Nc7cc(Cl)ccc76)[C@H]5c5cccc(Cl)c5F)cc4)c3C2=O)C(=O)N1 (stereo partly drawn) [Cpd. No. 12, (3′R,4'S,5′R)-6″-chloro-4′-(3-chloro-2-fluorophenyl)-N-(4-((7-((2-(2,6-dioxopiperidin-3-yl)-1,3-dioxoisoindolin-4-yl)amino)heptyl)carbamoyl)phenyl)-2″-oxodispiro[cyclohexane-1,2′-pyrrolidine-3′,3″-indoline]-5′-carboxamide] | – | 100

The remaining lines, values ahead:

IC50 (MV4-11 cell line) [nM] | IC50 (RS4; 11 cell line) [nM] | SMILES
– | 15 | O=C1CCC(N2Cc3c(NC(=O)CCOCCOCCNC(=O)c4ccc(NC(=O)[C@@H]5NC6(CCCCC6)[C@@]6(C(=O)Nc7cc(Cl)ccc76)[C@H]5c5cccc(Cl)c5F)cc4)cccc3C2=O)C(=O)N1 (stereo partly drawn) [Cpd. No. 29, (3′R,4'S,5′R)-6″-chloro-4′-(3-chloro-2-fluorophenyl)-N-(4-((2-(2-(3-((2-(2,6-dioxopiperidin-3-yl)-1-oxoisoindolin-4-yl)amino)-3-oxopropoxy)ethoxy)ethyl)carbamoyl)phenyl)-2″-oxodispiro[cyclohexane-1,2′-pyrrolidine-3′,3″-indoline]-5′-carboxamide]
– | 23 | O=C1CCC(N2C(=O)c3cccc(CCCCCNC(=O)c4ccc(NC(=O)[C@@H]5NC6(CCCCC6)[C@@]6(C(=O)Nc7cc(Cl)ccc76)[C@H]5c5cccc(Cl)c5F)cc4)c3C2=O)C(=O)N1 (stereo partly drawn) [Cpd. No. 32, (3′R,4'S,5′R)-6″-chloro-4′-(3-chloro-2-fluorophenyl)-N-(4-((5-(2-(2,6-dioxopiperidin-3-yl)-1,3-dioxoisoindolin-4-yl)pentyl)carbamoyl)phenyl)-2″-oxodispiro[cyclohexane-1,2′-pyrrolidine-3′,3″-indoline]-5′-carboxamide]
– | 3.8 | O=C1CCC(N2Cc3c(CCCOCCOCCOCCNC(=O)c4ccc(NC(=O)[C@@H]5NC6(CCCCC6)[C@@]6(C(=O)Nc7cc(Cl)ccc76)[C@H]5c5cccc(Cl)c5F)cc4)cccc3C2=O)C(=O)N1 (stereo partly drawn) [Cpd. No. 37, (3′R,4'S,5′R)-6″-chloro-4′-(3-chloro-2-fluorophenyl)-N-(4-((2-(2-(2-(3-(2-(2,6-dioxopiperidin-3-yl)-1-oxoisoindolin-4-yl)propoxy)ethoxy)ethoxy)ethyl)carbamoyl)phenyl)-2″-oxodispiro[cyclohexane-1,2′-pyrrolidine-3′,3″-indoline]-5′-carboxamide]
– | 37.4 | O=C1CCC(N2C(=O)c3cccc(CCCOCCOCCNC(=O)c4ccc(NC(=O)[C@@H]5NC6(CCCCC6)[C@@]6(C(=O)Nc7cc(Cl)ccc76)[C@H]5c5cccc(Cl)c5F)cc4)c3C2=O)C(=O)N1 (stereo partly drawn) [Cpd. No. 36, (3′R,4'S,5′R)-6″-chloro-4′-(3-chloro-2-fluorophenyl)-N-(4-((2-(2-(3-(2-(2,6-dioxopiperidin-3-yl)-1,3-dioxoisoindolin-4-yl)propoxy)ethoxy)ethyl)carbamoyl)phenyl)-2″-oxodispiro[cyclohexane-1,2′-pyrrolidine-3′,3″-indoline]-5′-carboxamide]
– | 46 | O=C1CCC(N2C(=O)c3cccc(CCCOCCOCCOCCNC(=O)c4ccc(NC(=O)[C@@H]5NC6(CCCCC6)[C@@]6(C(=O)Nc7cc(Cl)ccc76)[C@H]5c5cccc(Cl)c5F)cc4)c3C2=O)C(=O)N1 (stereo partly drawn) [Cpd. No. 38, (3′R,4'S,5′R)-6″-chloro-4′-(3-chloro-2-fluorophenyl)-N-(4-((2-(2-(2-(3-(2-(2,6-dioxopiperidin-3-yl)-1,3-dioxoisoindolin-4-yl)propoxy)ethoxy)ethoxy)ethyl)carbamoyl)phenyl)-2″-oxodispiro[cyclohexane-1,2′-pyrrolidine-3′,3″-indoline]-5′-carboxamide]
– | 98 | CC(C)[C@@H](CS(=O)(=O)C(C)C)N1C(=O)[C@@](C)(CC(=O)NCCCOCCOCCOCCCNc2cccc3c2C(=O)N(C2CCC(=O)NC2=O)C3=O)C[C@H](c2cccc(Cl)c2)[C@H]1c1ccc(Cl)cc1 (stereo partly drawn) [Cpd. No. 61, 2-((3R,5R,6S)-5-(3-chlorophenyl)-6-(4-chlorophenyl)-1-((S)-1-(isopropylsulfonyl)-3-methylbutan-2-yl)-3-methyl-2-oxopiperidin-3-yl)-N-(3-(2-(2-(3-((2-(2,6-dioxopiperidin-3-yl)-1,3-dioxoisoindolin-4-yl)amino)propoxy)ethoxy)ethoxy)propyl)acetamide]
– | 1.8 | O=C1CCC(N2Cc3c(CCCCCNC(=O)c4ccc(NC(=O)[C@@H]5NC6(CCCCC6)[C@@]6(C(=O)Nc7cc(Cl)ccc76)[C@H]5c5cccc(Cl)c5F)cc4)cccc3C2=O)C(=O)N1 (stereo partly drawn) [Cpd. No. 31, (3′R,4'S,5′R)-6″-chloro-4′-(3-chloro-2-fluorophenyl)-N-(4-((5-(2-(2,6-dioxopiperidin-3-yl)-1-oxoisoindolin-4-yl)pentyl)carbamoyl)phenyl)-2″-oxodispiro[cyclohexane-1,2′-pyrrolidine-3′,3″-indoline]-5′-carboxamide]
– | 1.5 | CC1(C)CCC2(CC1)N[C@@H](C(=O)Nc1ccc(C(=O)NCCOCCOCCNc3cccc4c3C(=O)N(C3CCC(=O)NC3=O)C4=O)cc1)[C@H](c1cccc(Cl)c1F)[C@]21C(=O)Nc2cc(Cl)ccc21 (stereo partly drawn) [Cpd. No. 52, (3′R,4'S,5′R)-6″-chloro-4′-(3-chloro-2-fluorophenyl)-N-(4-((2-(2-(2-((2-(2,6-dioxopiperidin-3-yl)-1,3-dioxoisoindolin-4-yl)amino)ethoxy)ethoxy)ethyl)carbamoyl)phenyl)-4,4-dimethyl-2″-oxodispiro[cyclohexane-1,2′-pyrrolidine-3′,3″-indoline]-5′-carboxamide]
